Test in all cases: NCI-60 cell line screen, 48 h
Assay [1] relates to A549 NSCLC.
Assay [2] has as its system NCI-H23 lung.
Assay [3] has as its system DU-145 prostate.
Assay [4] relates to NCI-H226 lung.
The test system of assay [5] is SK-MEL-2 melanoma.
In assay [6] the test system is SR leukemia.
Assay [7] deals with NCI-H522 lung.
Assay [8] deals with SF-268 CNS.
Assay [9] has as its system SF-295 CNS.
In assay [10] the test system is MCF7 breast.

The values below come from PubChem BioAssay (NCI).

The structures appear in SMILES notation.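 Method: 48-hour compound exposure of cells in 96-well plates, five concentrations, linear interpolation of endpoints. GI50: concentration for 50% inhibition of growth. TGI marks complete inhibition of growth.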 Where only a bound is given, the exact number is not on record here.

Consider `COc1ccc2c(c1)c(-c1nc(-c3cn(C)c4ncccc34)cs1)cn2CCCCN1CCCCC1`, for which the GI50 in assay [1] was 1.74 µM; in [2], 1.75 µM; in [3], 1.74 µM; in [4] it was 1.52 µM. Besides, the TGI came out at 3.21 µM in assay [1], 3.28 µM in assay [2], 3.12 µM in assay [3] and 3.11 µM in assay [4].
Take `CCn1c(O)c(C(=O)Nc2cccs2)c(=O)n(CC)c1=S`: the TGI in [1] is 49.8 µM; in assay [5], 32.8 µM; in assay [2], 30.5 µM; in assay [6], above 100 µM; in assay [7], 38.4 µM; in [4] it was 56.8 µM. The TGI in assay [8] was found to be 44.4 µM; in assay [9], 35.6 µM.
In the case of `Cc1c(Cl)ccc2[s+]snc12`, the TGI in assay [1] is above 100 µM; in [5] it was 77.3 µM; in [2], above 100 µM; in assay [6], above 100 µM; in [7] it was 41.5 µM; in assay [4], above 100 µM. For the same compound, the figures for the TGI in [8] and in assay [9] were 62.8 µM and above 100 µM, respectively.
As to `Cc1cc2c(=O)cc(-c3ccncc3)oc2c(C(N)=O)c1C`, the TGI in [1], in [5], in assay [2], in [6], in assay [4] and in assay [8] was above 100 µM each time. In assay [9], this compound showed a TGI above 100 µM.
Take `O=C(NC(=Nc1ccccc1)SCCSC(=Nc1ccccc1)NC(=O)c1ccccc1)c1ccccc1`: the TGI in [1] was above 100 µM; in assay [5], above 100 µM; in [2], above 100 µM; in assay [7] it was 73 µM; in assay [4], above 100 µM; in [8], above 100 µM. In addition, the TGI in assay [9] was above 100 µM.
As for `CC1SC(c2ccc(OCc3ccccc3)cc2)N(NC(=O)C(O)(c2ccccc2)c2ccccc2)C1=O` (configuration not stated), the GI50 in assay [1] was 4.68 µM; in assay [5], 4.36 µM; in [2] it was 2.7 µM; in [3], 3.55 µM; in assay [10] it was 4.37 µM; in assay [4], 3.79 µM. Further, the GI50 in [8] was 3.66 µM; in assay [9], 1.78 µM. Also, the TGI in assay [1] came out at 20.8 µM; in assay [5], 18.8 µM; in [2], 13.8 µM; in assay [3], 13.6 µM; in [10], 22.4 µM; in [4] it was 15.8 µM. Besides, the TGI in assay [8] was determined as 15 µM; in assay [9], 4.53 µM.
Take `CC(=O)Nc1ccc(/C=C/C(=O)c2sc(-n3nc(-c4ccccc4)cc3-c3ccccc3)nc2C)cc1`: the GI50 in assay [1], in [5], in assay [2], in assay [4], in assay [8] and in assay [9] was above 100 µM each time. In addition, the TGI in assay [1], in [5], in assay [2], in [7], in [4] and in assay [8] was above 100 µM in each case. Besides, the TGI in [9] was above 100 µM.
For the compound `O=C(c1ccccc1)N1CCc2c([nH]c3ccccc23)C1`, the TGI in assay [1] is above 100 µM; in assay [5], 71.2 µM; in [2] it was above 100 µM; in assay [6], above 100 µM; in [7], 64.8 µM; in [4], above 100 µM. This compound also had a TGI in [9] above 100 µM.
Consider `COc1cc(/C=C(\C#N)C(=O)c2ccccc2)cc(OC)c1OC`, for which the TGI in [1], in [5], in assay [2], in assay [6], in assay [7] and in assay [4] was above 100 µM throughout. Also, the TGI in assay [8] and in assay [9] was above 100 µM in each case.
For the compound `O=C(N=Nc1c(O)[nH]c2c(Cl)cc(Cl)cc12)C(=O)Nc1cccc(C(F)(F)F)c1`, the TGI in assay [1], in assay [5], in assay [2], in assay [10], in assay [6] and in [4] was above 100 µM each time. Also, the TGI in assay [9] is above 100 µM.
With `COC(=O)N1C=Cc2c(c(C)c3c([nH]c4ccccc43)c2C)C1C` (configuration not stated), the TGI in assay [1] was 42.2 µM; in assay [5], 34 µM; in [2], 36.2 µM; in assay [4], 35.7 µM; in [8], 44.6 µM; in assay [9], 28.6 µM.
For `CCCCCCCCCCCCCCCCCCCCCCC(=O)N[C@H]1CCc2cc(OC)c(OC)c(OC)c2-c2ccc(SC)c(=O)cc21`, the TGI in assay [1] was above 100 µM; in assay [2], 62.2 µM; in assay [6] it was 81.9 µM; in assay [7], 33.1 µM; in assay [4], 8.23 µM; in [8], above 100 µM. In addition, in [9], the TGI was above 100 µM.
`O=C(Nc1cc(Cl)ccc1Cl)c1cc2ccccc2oc1=O`: the TGI in [1], in assay [5], in [2], in assay [7] and in assay [9] was above 100 µM in each case.
Regarding `O=c1ccn([C@@H]2C[C@H](CO)CS(=O)C2)c(=O)[nH]1` (some centres not stated), the TGI in assay [1], in assay [5], in [2], in assay [7], in assay [4] and in assay [8] was above 100 µM in each case. Moreover, the TGI in assay [9] was above 100 µM.
Regarding `CCC[CH2][Sn]1([CH2]CCC)[O]C(=O)c2cccnc2[S]1`, the GI50 was 16.8 µM in assay [1]; 2.11 µM in [5]; 2.13 µM in assay [2]; 1.4 µM in [6]; 0.348 µM in [7]; 15.3 µM in assay [4]. Further, in assay [9], the GI50 was 3.19 µM. For the same compound, the TGI in [1] was 31.6 µM; in assay [5], 4.63 µM; in [2], 5.41 µM; in [6] it was 5.65 µM; in [7], 1.57 µM; in assay [4] it was 29.1 µM. Moreover, the TGI in assay [9] came to 12 µM.
For the compound `O=C(CC1(O)C(=O)Nc2ccc(Br)cc21)c1cccc([N+](=O)[O-])c1` (configuration not stated), the TGI was above 100 µM in assay [1]; above 100 µM in [5]; above 100 µM in [2]; 67.2 µM in assay [7]; 82.5 µM in assay [4]; above 100 µM in assay [8]. The TGI in assay [9] was above 100 µM.
For the compound `BrC(/C=N/Nc1nnc(-c2ccccc2)c(-c2ccccc2)n1)C(Br)c1ccccc1` (configuration not stated), the TGI was above 100 µM in [1]; 73.2 µM in [5]; above 100 µM in [2]; 54.1 µM in assay [7]; 70.4 µM in assay [4]; above 100 µM in [8]. The TGI in assay [9] is above 100 µM.
On to `CCCCP1(=O)C=CC(Cl)=C(C)C1` (configuration not stated), for which the TGI in assay [1], in assay [5], in assay [2], in assay [7], in assay [8] and in assay [9] was above 100 µM throughout.
Regarding `Cc1nc2ccccc2c(=O)n1/N=C(\N=Nc1ccc(Cl)cc1)c1ccc(N(C)C)cc1`, the TGI in assay [1], in [2], in [7], in assay [8] and in [9] was above 100 µM in each case.
With `O=C1C(=C2C(=O)c3ccccc3[N+]2=O)N([O-])c2ccccc21`, the TGI in [1] was above 100 µM; in [2] it was 77.7 µM; in [6], 79.4 µM; in [4], 81.4 µM; in assay [8], 88.5 µM; in [9], above 100 µM.
As to `COc1ccc(Cc2c3cc(OC)c(OC)cc3cc[n+]2C)cc1`, the TGI in assay [1] was above 46.5 µM; in [5] it was above 45.8 µM; in [2], above 40.2 µM; in [6], above 100 µM; in assay [7], above 85.9 µM; in assay [4] it was above 51.9 µM. For the same compound, the TGI is above 27.5 µM in assay [8] and above 24.7 µM in assay [9].
In the case of `N#CC1(C2CC(=O)N(c3ccccc3)C2=O)CCCCC1=O` (configuration not stated), the TGI in [1], in assay [2], in assay [6], in assay [4], in [8] and in assay [9] was above 100 µM throughout.
On to `CC[C@H]1CNC(=O)CC1CC(=O)OC` (some centres not stated), for which the TGI in assay [1], in assay [5], in assay [2], in assay [6], in assay [7] and in assay [4] was above 100 µM each time. In addition, the TGI in assay [8] and in assay [9] was above 100 µM in each case.
Regarding `C#CC[C@]12CC(=O)CC[C@H]1CC1(C2)OCCO1`, the TGI in assay [1], in assay [5], in assay [6], in [7], in [4] and in [8] was above 100 µM in each case.
For `CC(=O)NNc1nc(C)c(C(=O)NNC(=O)C(=O)Nc2ccc(C)cc2[N+](=O)[O-])s1`, the TGI in assay [1] is above 100 µM; in assay [5] it was above 100 µM; in [2], above 100 µM; in [6], above 100 µM; in [7], 78 µM; in assay [4], above 100 µM. The TGI in assay [8] and in [9] was above 100 µM each time.
`Cc1cc(Br)ccc1N=NC1C(=O)ON=C1c1ccccc1` (configuration not stated): the TGI in [1], in assay [5], in assay [2], in assay [6], in assay [7] and in assay [4] was above 100 µM throughout. Besides, the TGI in [8] and in assay [9] was above 100 µM each time.
As for `CC1(C)OC2OC(/C=C/[N+](=O)[O-])C3OC(C)(C)OC3C2O1` (configuration not stated), the TGI was 42.6 µM in [1]; 32.6 µM in assay [5]; 37.6 µM in assay [2]; 33.6 µM in assay [6]; 3.36 µM in assay [7]; 37.1 µM in [4]. In addition, the TGI in [8] was 39.5 µM; in assay [9], 36 µM.
As for `CC1CC(=O)C(CC(=O)O)[C@H]1C(C(=O)C(=O)Nc1cc(Cl)ccc1Cl)[N+](=O)[O-]` (some centres not stated), the TGI in assay [1], in assay [6], in assay [7], in assay [4], in [8] and in assay [9] was above 100 µM throughout.
As to `Cc1nn(-c2ccccc2)c2c1[C@@H](C)[C@H]1CC3(CC4(C)C[C@@H]3C1(C)c1c(C)nn(-c3ccccc3)c1N4C)N2C` (some centres not stated), the GI50 was above 100 µM in assay [5]; above 100 µM in [2]; above 100 µM in [3]; 3.46 µM in [10]; 3.88 µM in assay [7]; above 100 µM in [4]. Besides, the GI50 in [8] was above 100 µM. The TGI in assay [5], in [2], in assay [3], in assay [10], in [7] and in assay [4] was above 100 µM each time. Also, the TGI in assay [8] is above 100 µM.
Turning to `C[C@H](O)CCC(=O)c1ccoc1`, the TGI in [1], in assay [5], in assay [2], in [6], in assay [7] and in [4] was above 100 µM in each case. Besides, the TGI in assay [8] and in assay [9] was above 100 µM in each case.
For `CCc1cccc(CC)c1NC1=CC(=O)C(=O)c2ccccc21`, the TGI was 37.8 µM in assay [1]; 35.9 µM in [5]; 3.02 µM in [2]; above 100 µM in assay [6]; 28.3 µM in [7]; 88.5 µM in assay [4]. Besides, the TGI in assay [8] was 72.5 µM; in assay [9] it was 28.3 µM.
